The numbers were not newly measured in patent US5888993A, “Vanadium compounds in the treatment of elevated blood sugar levels” (The University of British Columbia, priority 1997, dated 1999), which cites them from elsewhere.

One data set relates to Na^+ -K^+ ATPase. The settings on record: cited from earlier work.
For data set [1], the system named is rats made diabetic with streptozoticin (STZ). To be noted: oral / drinking water; cited from earlier work.
For data set [2] the following is noted: in vivo; cited from earlier work.
The conditions of data set [3]: in vivo; cited from earlier work. This is another data set of the same source.
Another data set has as its system red blood cells. The settings on record: cytoplasm; cited from earlier work.
For data set [4] the following is noted: cited from earlier work.
Another data set deals with rat adipocytes. The settings on record: in vitro; cited from earlier work.

As to `[Na+].[Na+].[Na+].[O]=[V]([O-])([O-])[O-]` [Sodium orthovanadate], in the data set on Na^+ -K^+ ATPase, the “inhibition of Na^+ -K^+ ATPase” value is on record as “potent inhibitor”.
`[O]=[V]([O-])([O-])[O-]` [vanadate]: in data set [1], the blood glucose result is “decreased the elevated blood glucose” and the “cardiac performance / secondary complications of diabetes” value was “prevented the depression of cardiac performance”. Moreover, the “absorption from the gastrointestinal tract” value in data set [2] was “poorly absorbed”. Besides, in data set [3], the toxicity entry is recorded as “toxic”. In the data set on red blood cells, the “reduction of vanadate in red blood cells” value is “reduced to vanadium (IV)”. In data set [4], the in vivo reduction entry is “reduced in vivo to vanadyl”.
For `[O]=[V+2]` [vanadyl ion], the “insulin-like stimulation of glucose oxidation” value in the data set on rat adipocytes is “insulin-like stimulation of glucose oxidation”.
